Data published in US20260258084A1, “New Peptides as Selective IL-23 Receptor Antagonists” (Sanofi, priority 2022, published 2026).
Converted amounts (≈) assume the structure as drawn. Where two headings read alike, the source gives them in different places. Starred links: 1 amine or outer side, 2 acyl side, 3 side chain; linkers in the order of their positions; H or OH if unused. Positions of bridges follow the written chain, without caps; N, C: chain ends. Non-standard residues stand in square brackets, D forms with d. Residues, ends and D or L forms follow the SMILES beside them. *: point of attachment. X6 = O=C(CCC(=O)[*:3])N[C@@H](CS[*:2])C(=O)[*:1]; X7 = O=C(CCC(=O)[*:3])N[C@@H](CC[*:2])C(=O)[*:1]; Trp(7-Me) = Cc1cccc2c(C[C@H](N)C(=O)O)c[nH]c12; αMeLys(Me2) = CN(C)CCCC[C@](C)(N)C(=O)O; 2Nal = N[C@@H](Cc1ccc2ccccc2c1)C(=O)O; d2Nal = N[C@H](Cc1ccc2ccccc2c1)C(=O)O; NMe5Ava = CN(CCCCC(=O)[*:2])[*:1]; Palmitoyl = CCCCCCCCCCCCCCCC(=O)*; 3Pal = N[C@@H](Cc1cccnc1)C(=O)O; αMeL = CC(C)C[C@](C)(N)C(=O)O; Pen = CC(C)(S)[C@H](N)C(=O)O; Suc = O=C(CCC(=O)[*:2])[*:1]; αMeK = C[C@](N)(CCCCN)C(=O)O; Thp = NC1(C(=O)O)CCOCC1; Me2NCH2CH2 = CN(C)CC*; Aib = CC(C)(N)C(=O)O; Ahx = NCCCCCC(=O)O; Ava = NCCCCC(=O)O; Sar = CNCC(=O)O

Key:
[1] = Chemical stability assessment of peptides (relative purity loss); type: physicochemical; settings: 24 hours at 37° C.
Experimental: Purity of a peptide batch was determined through UPLC/MS (Methods B-G) prior to chemical stability measurement. The target concentration was 1 mg/ml pure compound. Solutions from solid samples were prepared in the following buffer systems with a concentration of 1 mg/ml compound based on the previously determined % purity: • Solubility buffer system A) 50 mM HCl pH 1.2+Acetonitrile (1:1) • Solubility buffer system B) 50 mM phosphate buffer pH 6.5+Acetonitrile (1:1) • Solubility buffer system C) 50 mM phosphate buffer pH 7.4+Acetonitrile (1:1)
Prepared solutions were stored for 24 hours at 2° C. and 37° C. After this time course, the samples were centrifuged for 15 min at 2500 RCF to create a 1:5 dilution of the supernatant. Then 2 μl of the dilution were analysed with UHPLC-UV.
The chemical stability was rated through the relative loss of purity calculated by the equation:
[(purity after 0 hours at 37° C.)−(purity after 24 hours at 37° C.)]/(purity after 0 hours at 37° C.)]*100%
The purity is calculated as [(peak area peptide)/(total peak area)]*100%.

[2] = target: T1, human interleukin-23 receptor (recombinant human IL-23R-Fc chimera) (Homo sapiens, UniProt Q5VWK5); assay: Human ELISA IL23/IL23R (assay for specific human IL23R antagonists); type: binding
T1 construct: Fc (IgG Fc fusion)
Experimental: Antagonism of compounds for human interleukin-23 receptor antagonists, was determined by an ELISA assay.
A 384-well plate was coated with 50 μl/well of human IL23 at a final concentration of […] and incubated overnight at 4° C. The wells were washed 3 times with 80 μl wash buffer and blocked with 80 μl blocking buffer for 60 minutes at room temperature and washed again. 20 μl of serially diluted test peptides was added to each well and subsequently 20 μl of recombinant human IL-23R-Fc chimera at final concentration of 0.1 μg/ml. The plate was incubated for 60 minutes at room temperature. After the wells were washed, bound IL23R-Fc was detected with goat anti-hu-IgG1-HRP antibody. Signals were visualized with QuantaBlu Fluorogenic Peroxidase Substrate.

[3] = Solubility testing of peptides at different pH; type: physicochemical; settings: target concentration 1 mg/ml, 2 hours agitation
Experimental: Prior to the solubility measurement of a synthesized peptide batch, its purity was determined through UPLC/MS (methods B-G).
For solubility testing the target concentration was 1 mg pure compound/ml. Therefore, solutions from solid samples were prepared in a buffer system at a concentration of 1 mg/mL compound. The solid samples were obtained by drying down aliquots of a dimethyl sulfoxide stock solution using a Thermo Speedvac vacuum centrifuge. The dry down time was 3 hours. • Solubility buffer system A) 50 mM HCl pH 1.2 • Solubility buffer system B) 50 mM phosphate buffer pH 6.5 • Solubility buffer system C) 50 mM phosphate buffer pH 7.4 • Solubility buffer system D) 50 mM phosphate buffer pH 9.0
UPLC-UV (Method A) was performed after 2 hours of gentle agitation from the filtered (0.45 μm filter plates) solutions, which was obtained by 10 mins of centrifugation forced filtration at 1500 RCF (relative centrifugal acceleration).
The solubility was determined by the comparison of the UV peak area of 2 μL-injections of a buffered sample diluted 1:5 with a standard curve of a dimethyl sulfoxide reference sample of the diluted in dimethyl sulfoxide with known concentration. The different extinction coefficients were taken into account for the calculation.

[4] = tested on: IL-23 induced STAT3 signaling in HEK-Blue™ IL-23 cells; assay: IL-23 induced STAT3 signaling in HEK-Blue IL-23 cells (SEAP reporter); type: cell-based; settings: human IL23 0.25 ng/ml, read-out: pSTAT3
Text: HEK-Blue™ IL-23 cells (Invivogen) are designed for the detection of bioactive human (hIL-23) and murine IL-23 (mIL-23) by monitoring the activation of the STAT3 pathway. Binding of IL-23 to its receptor on the surface of HEK-Blue™ IL-23 cells triggers a signalling cascade leading to the activation of STAT3 and the subsequent production of secreted embryonic alkaline phosphatase (SEAP). This can be readily assessed using QUANTI-Blue™ Solution, a SEAP detection reagent.
HEK-Blue™ IL-23 cells were cultured as described by Invivogen.
On the first day of assay 10 μL of the HEK-Blue IL23 cell suspension (final concentration: 10,000 cells/well) and 10 μl of serially diluted peptides solutions were dispensed into a 384-well assay plate. After pre-incubation of the reaction mixtures at 37° C./5% CO2/95% humidity for 60 minutes, 10 μl of the human IL23 cytokine (final concentration: 0.25 ng/ml) was added to each well for the STAT3 signalling activation. The plate was incubated overnight at 37° C./5% CO2/95% humidity.
On the second day 20 μl per well of Quanti-Blue detection solution (prepared according to the manufacture instruction) was dispensed into a new 384-well plate and followed by the transfer of 5 μl supernatant of the overnight incubated cell/sample mixtures. After incubation of 45 min at room temperature signals were measured with PHERAstar (BMG) at OD 620-655 nm. Dose response data were fitted with XLfit.

[5] = Table 10, read-out: Human ELISA IL23/IL23R IC50
[6] = Table 11, Pen peptide compounds, read-out: Elisa IC50 Pen

Structure (SMILES)	IC50 [2, 5] [nM]	IC50 [2, 6] [nM]	IC50 [4] [nM]	other results
CCCCCCCCCCCCCCCC(=O)NCCCC[C@]1(C)NC(=O)[C@H](Cc2ccc3ccccc3c2)NC(=O)[C@H](Cc2ccc(OCCN(C)C)cc2)NC(=O)[C@@H]2CSSC[C@H](NC(=O)CCC(=O)NCCCC[C@@H](C(=O)N[C@@H](CC(N)=O)C(=O)N[C@@H](Cc3cccnc3)C(=O)N(C)CC(N)=O)NC1=O)C(=O)NCCCC[C@H](NC(C)=O)C(=O)N[C@@H](Cc1c[nH]c3c(C)cccc13)C(=O)N[C@@H](CCCCNC(C)=O)C(=O)N2 [compound 101] (Ac-K[Trp(7-Me)]K(Ac)CY(Me2NCH2CH2)[2Nal][αMeK](Palmitoyl)KN[3Pal][Sar]-NH2; linker 1-4-8 via X6)	3.47	–	–	Chemical stability (relative purity loss) Buffer pH 1.2 ([1]; 50 mM HCl pH 1.2 + acetonitrile (1:1)): 12.0%; Chemical stability (relative purity loss) Buffer pH 6.5 ([1]; 50 mM phosphate buffer pH 6.5 + acetonitrile (1:1)): 10.0%; Chemical stability (relative purity loss) Buffer pH 7.4 ([1]; 50 mM phosphate buffer pH 7.4 + acetonitrile (1:1)): 9.0%; solubility at 2 h ([3]; 50 mM HCl buffer, 50 mM HCl pH 1.2, read-out: Solubility Buffer pH 1.2): ≥ 1430 µg/mL; solubility at 2 h ([3]; 50 mM phosphate buffer pH 6.5, read-out: Solubility Buffer pH 6.5): 750 µg/mL (≈ 354 µM); solubility at 2 h ([3]; 50 mM phosphate buffer pH 7.4, read-out: Solubility Buffer pH 7.4): ≥ 870 µg/mL; solubility at 2 h ([3]; 50 mM phosphate buffer pH 9.0, read-out: Solubility Buffer pH 9.0): 810 µg/mL (≈ 382 µM)
Cc1cccc2c(C[C@@H]3NC(=O)[C@H]([C@@H](C)O)NC(=O)[C@H](CC(N)=O)NC(=O)[C@@H]4CSSC[C@H](NC(=O)[C@H](CCC(N)=O)NC3=O)C(=O)N[C@@H](Cc3ccc(OCCN(C)C)cc3)C(=O)N[C@@H](Cc3ccc5ccccc5c3)C(=O)N[C@@](C)(CCCCN(C)C)C(=O)N[C@H](C(=O)N[C@@H](CC(N)=O)C(=O)N[C@@H](Cc3cccnc3)C(=O)N(C)CC(N)=O)CCCCNC(=O)CCC(=O)N4)c[nH]c12 [compound 153] (CNT[Trp(7-Me)]QCY(Me2NCH2CH2)[2Nal][αMeLys(Me2)]KN[3Pal][Sar]-NH2; disulfide 1-6; linker N-10 via Suc)	0.45	–	0.06	–
CC(=O)NCCCC[C@@H]1NC(=O)[C@H](Cc2c[nH]c3c(C)cccc23)NC(=O)[C@@H](NC(C)=O)CCCCNC(=O)[C@@H]2CCSC[C@H](NC1=O)C(=O)N[C@@H](Cc1ccc(OCCN(C)C)cc1)C(=O)N[C@H](Cc1ccc3ccccc3c1)C(=O)NC1(CCOCC1)C(=O)N[C@H](C(=O)N[C@@H](CC(N)=O)C(=O)N[C@@H](Cc1cccnc1)C(=O)N(C)CC(N)=O)CCCCNC(=O)CCC(=O)N2 [compound 122] (Ac-K[Trp(7-Me)]K(Ac)CY(Me2NCH2CH2)[d2Nal][Thp]KN[3Pal][Sar]-NH2; linker 1-4-8 via X7)	2.3	–	0.37	–
COc1ccc(C[C@@H]2NC(=O)[C@@H]3CSSC(C)(C)[C@H](NC(=O)CCCCCNC(=O)C[C@@H](C(=O)N[C@@H](CC(N)=O)C(=O)N[C@@H](CC(N)=O)C(N)=O)NC(=O)C(C)(C)NC(=O)[C@H](Cc4ccc5ccccc5c4)NC2=O)C(=O)N[C@@H](CC(N)=O)C(=O)N[C@@H]([C@@H](C)O)C(=O)N[C@@H](Cc2c[nH]c4ccccc24)C(=O)N[C@@H](CCC(N)=O)C(=O)N3)cc1 [compound 164] ([Ahx][Pen]NTWQCY(Me)[2Nal][Aib]DNN-NH2; disulfide 2-7; lactam N-11)	–	23.1	–	–
CC(C)C[C@]1(C)NC(=O)[C@H](Cc2ccc3ccccc3c2)NC(=O)[C@H](Cc2ccc(OCCN(C)C)cc2)NC(=O)[C@@H]2CSSC[C@H](NC(=O)CCCCN(C)C(=O)CC[C@@H](C(=O)N[C@@H](CC(N)=O)C(=O)N[C@@H](CC(N)=O)C(N)=O)NC1=O)C(=O)N[C@@H](CC(N)=O)C(=O)N[C@@H]([C@@H](C)O)C(=O)N[C@@H](Cc1c[nH]c3ccccc13)C(=O)N[C@@H](CCC(N)=O)C(=O)N2 [compound 42] ([NMe5Ava]CNTWQCY(Me2NCH2CH2)[2Nal][αMeL]ENN-NH2; disulfide 2-7; lactam N-11)	0.32	–	1.42	–
COc1ccc(C[C@@H]2NC(=O)[C@H]3NC(=O)[C@H](CCC(N)=O)NC(=O)[C@H](Cc4c[nH]c5ccccc45)NC(=O)CCCCNC(=O)[C@H](CCC(=O)O[C@@H]3C)NC(=O)CCCCCNC(=O)C[C@@H](C(=O)N[C@@H](CC(N)=O)C(=O)N[C@@H](CC(N)=O)C(N)=O)NC(=O)C(C)(C)NC(=O)[C@H](Cc3ccc4ccccc4c3)NC2=O)cc1 [compound 39] ([Ahx]E[Ava]WQTY(Me)[2Nal][Aib]DNN-NH2; ester 2-6; lactam N-10)	1.1	–	26.4	–
COc1ccc(C[C@@H]2NC(=O)[C@H]3NC(=O)[C@H](CCC(N)=O)NC(=O)[C@H](Cc4c[nH]c5ccccc45)NC(=O)[C@H]([C@@H](C)O)NC(=O)[C@H](CC(N)=O)NC(=O)[C@@H](NC(=O)CCCCCNC(=O)C[C@@H](C(=O)N[C@@H](CC(N)=O)C(=O)N[C@@H](CC(N)=O)C(N)=O)NC(=O)[C@](C)(CC(C)C)NC(=O)[C@H](Cc4ccc5ccccc5c4)NC2=O)C(C)(C)SSC3(C)C)cc1 [compound 162] ([Ahx][Pen]NTWQ[Pen]Y(Me)[2Nal][αMeL]DNN-NH2; disulfide 2-7; lactam N-11)	–	33.5	–	–

Now from value to molecule, other results behind:

IC50 [2, 5] [nM]	IC50 [2, 6] [nM]	Structure (SMILES)	IC50 [4] [nM]	other results
–	76.6	COc1ccc(C[C@@H]2NC(=O)[C@H]3NC(=O)[C@H](CCC(N)=O)NC(=O)[C@H](Cc4c[nH]c5ccccc45)NC(=O)[C@H]([C@@H](C)O)NC(=O)[C@H](CC(N)=O)NC(=O)[C@@H](NC(=O)CCCCCNC(=O)CC[C@@H](C(=O)N[C@@H](CC(N)=O)C(=O)NCC(N)=O)NC(=O)C4(CCOCC4)NC(=O)[C@H](Cc4ccc5ccccc5c4)NC2=O)C(C)(C)SSC3(C)C)cc1 [compound 161] ([Ahx][Pen]NTWQ[Pen]Y(Me)[2Nal][Thp]ENG-NH2; disulfide 2-7 (inferred); lactam N-11 (inferred))	–	–
–	280	COc1ccc(C[C@@H]2NC(=O)[C@H]3NC(=O)[C@H](CCC(N)=O)NC(=O)[C@H](Cc4c[nH]c5ccccc45)NC(=O)[C@H]([C@@H](C)O)NC(=O)[C@H](CC(N)=O)NC(=O)[C@@H](NC(=O)CCCCNC(=O)CC[C@@H](C(=O)N[C@@H](CC(N)=O)C(=O)N[C@@H](CC(N)=O)C(N)=O)NC(=O)C(C)(C)NC(=O)[C@H](Cc4ccc5ccccc5c4)NC2=O)C(C)(C)SSC3(C)C)cc1 [compound 159] ([Ava][Pen]NTWQ[Pen]Y(Me)[2Nal][Aib]ENN-NH2; disulfide 2-7; lactam N-11)	–	–
–	72.2	COc1ccc(C[C@@H]2NC(=O)[C@H]3NC(=O)[C@H](CCC(N)=O)NC(=O)[C@H](Cc4c[nH]c5ccccc45)NC(=O)[C@H]([C@@H](C)O)NC(=O)[C@H](CC(N)=O)NC(=O)[C@@H](NC(=O)CCCCCNC(=O)CC[C@@H](C(=O)N[C@@H](CC(N)=O)C(=O)N[C@@H](CC(N)=O)C(N)=O)NC(=O)C(C)(C)NC(=O)[C@H](Cc4ccc5ccccc5c4)NC2=O)C(C)(C)SSC3(C)C)cc1 [compound 160] ([Ahx][Pen]NTWQ[Pen]Y(Me)[2Nal][Aib]ENN-NH2; disulfide 2-7; lactam N-11)	–	–
